# Reference: patent US9981945B2, “Pyrimidine derivatives as CFTR modulators” (NuBridge BioSciences, priority 2015, dated 2018)
# Molecular target: T1, ΔF508 mutant CFTR (Homo sapiens, UniProt P13569, DEL508-508)
# T1 construct: expressed in transfected cells; host or cells: Fischer rat thyroid (FRT) cells
# Experiment: Fluorescence (YFP halide quenching) assay of ΔF508 mutant CFTR activity in FRT cells
# Format: cell-based
# Set-up: key: fold of mean activity with forskolin alone (I− quenching rate)
# Conditions: FRT cells expressing ΔF508-CFTR and YFP-H148Q/I152L, rescued at 27° C. 20-24 h; forskolin 20 μM + test compound 20 μM for 20 min; I− influx rate normalized to forskolin alone
# Excerpt: The ΔF508 mutant CFTR activities of the CFTR modulators are detected using the Fluorescence Assay developed by Pedemonte (Pedemonte N., et al., Antihypertensive 1,4-dihydropyridines as correctors of the cystic fibrosis transmembrane conductance regulator channel gating defect caused by cystic fibrosis mutations, Mol. Pharmacol., 2005, 68, 1736-1746).
# Fischer rat thyroid (FRT) cells, stably transfected with ΔF508 were retransfected with the YFP-H148Q/I152L fluorescent protein. The cells were plated (100,000 cells/well) on black 96-well microplates with clear plastic bottom (Corning Life Sciences, Acton, Mass.).
# The 96-well microplates containing FRT cells expressing F508-CFTR and the halide-sensitive YFP were incubated at 27° C. for 20 to 24 h to allow rescue of the mutant protein to the plasma membrane. After incubation, cells were washed with PBS (containing 137 mM NaCl, 2.7 mM KCl, 8.1 mM Na2HPO4, 1.5 mM KH2PO4, 1 mM CaCl2, and 0.5 mM MgCl2) and stimulated for 20 min with forskolin (20 μM) and test compounds (20 μM) in a final volume of 60 μl. Microplates were then transferred to a microplate reader for CFTR activity determination. Each assay consisted of a continuous 14-s fluorescence reading (5 points per second) with 2 s before and 12 s after injection of 165 μl of an iodide-containing solution (PBS with Cl^− replaced by I^−). Final iodide concentration in the wells was 100 mM. […] To determine I^− influx rate, the final 11 s of the data for each well were fitted with an exponential function to extrapolate initial slope. CFTR activity was determined by measuring the rate of fluorescence quenching induced by extracellular addition of I^−. Data are normalized to the mean activity measured in the presence of forskolin alone.
# T1 sequence (P13569 with tags, fused parts or gaps DEL508-508): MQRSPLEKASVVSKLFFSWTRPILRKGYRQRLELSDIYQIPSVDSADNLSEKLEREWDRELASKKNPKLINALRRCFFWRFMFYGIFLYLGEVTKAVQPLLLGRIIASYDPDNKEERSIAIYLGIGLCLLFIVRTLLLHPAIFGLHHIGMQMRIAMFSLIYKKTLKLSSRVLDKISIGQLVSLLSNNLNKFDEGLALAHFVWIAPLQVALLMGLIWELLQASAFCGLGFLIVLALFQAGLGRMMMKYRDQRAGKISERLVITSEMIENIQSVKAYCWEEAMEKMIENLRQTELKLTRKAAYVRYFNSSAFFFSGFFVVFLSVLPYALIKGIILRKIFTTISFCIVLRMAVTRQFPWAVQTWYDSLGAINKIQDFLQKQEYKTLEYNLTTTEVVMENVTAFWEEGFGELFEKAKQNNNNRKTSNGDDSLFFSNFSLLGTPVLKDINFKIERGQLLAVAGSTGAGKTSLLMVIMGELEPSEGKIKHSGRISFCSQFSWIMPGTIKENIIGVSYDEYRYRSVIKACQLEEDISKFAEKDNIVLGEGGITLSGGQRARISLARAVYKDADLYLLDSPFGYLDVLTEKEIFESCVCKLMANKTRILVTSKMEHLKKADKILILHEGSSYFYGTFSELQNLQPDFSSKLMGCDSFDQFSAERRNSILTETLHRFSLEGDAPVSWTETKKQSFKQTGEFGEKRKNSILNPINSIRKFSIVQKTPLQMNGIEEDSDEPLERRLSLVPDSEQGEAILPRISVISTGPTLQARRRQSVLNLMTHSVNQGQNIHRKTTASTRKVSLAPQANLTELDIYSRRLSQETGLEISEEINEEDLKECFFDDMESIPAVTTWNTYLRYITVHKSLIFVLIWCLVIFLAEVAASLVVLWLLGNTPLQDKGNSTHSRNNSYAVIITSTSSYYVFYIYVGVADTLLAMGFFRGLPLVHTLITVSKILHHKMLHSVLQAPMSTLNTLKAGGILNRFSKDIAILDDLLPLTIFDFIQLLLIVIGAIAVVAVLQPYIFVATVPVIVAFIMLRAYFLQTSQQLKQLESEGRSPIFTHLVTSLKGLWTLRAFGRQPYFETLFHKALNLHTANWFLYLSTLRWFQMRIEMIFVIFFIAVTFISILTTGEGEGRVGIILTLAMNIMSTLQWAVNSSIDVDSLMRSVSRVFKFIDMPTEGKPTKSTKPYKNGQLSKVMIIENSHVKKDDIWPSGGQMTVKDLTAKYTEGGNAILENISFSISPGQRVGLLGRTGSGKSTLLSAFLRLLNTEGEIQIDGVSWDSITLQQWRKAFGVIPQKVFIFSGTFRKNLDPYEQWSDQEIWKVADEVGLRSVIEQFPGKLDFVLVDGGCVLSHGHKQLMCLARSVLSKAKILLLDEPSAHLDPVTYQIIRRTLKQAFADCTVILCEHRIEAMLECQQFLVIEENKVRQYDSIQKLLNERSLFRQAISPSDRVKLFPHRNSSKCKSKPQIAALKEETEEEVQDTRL
row,CFTR Activity,Compound
1,2.2,"Cl.NCC(CCl)Oc1ncncc1NC(=O)c1nc(-c2c(F)cccc2F)c(F)cc1N (stereo not drawn) [Example 33, 3-amino-N-(4-((1-amino-3-chloropropan-2-yl)oxy)pyrimidin-5-yl)-6-(2,6-difluorophenyl)-5-fluoropicolinamide hydrochloride]"
2,2.0,"Cl.NCC(CCl)COc1ncncc1NC(=O)c1nc(-c2c(F)cccc2F)c(F)cc1N (stereo not drawn) [Example 34, 3-amino-N-(4-(3-amino-2-(chloromethyl)propoxy)pyrimidin-5-yl)-6-(2,6-difluorophenyl)-5-fluoropicolinamide hydrochloride]"
3,2.1,"Cl.Nc1cc(F)c(-c2c(F)cccc2F)nc1C(=O)Nc1cncnc1OCC1CCCNC1 (stereo not drawn) [Example 35, 3-amino-6-(2,6-difluorophenyl)-5-fluoro-N-(4-(piperidin-3-ylmethoxy)pyrimidin-5-yl)picolinamide hydrochloride]"
4,4.1,"Cl.Nc1cc(F)c(-c2c(F)cccc2F)nc1C(=O)Nc1cncnc1OC1CCCC(N)C1 (stereo not drawn) [Example 37, 3-amino-N-(4-((3-aminocyclohexyl)oxy)pyrimidin-5-yl)-6-(2,6-difluorophenyl)-5-fluoropicolinamide]"
5,1.1,"Cl.Nc1cc(F)c(-c2ccccc2)nc1C(=O)Nc1cncnc1OC1CCNC1 (stereo not drawn) [Example 38, 3-amino-5-fluoro-6-phenyl-N-(4-(pyrrolidin-3-yloxy)pyrimidin-5-yl)picolinamide hydrochloride]"
6,0.5,"Cl.O=C(Nc1cncnc1OC1CCNCC1)c1ccc(F)c(-c2ccncc2)n1 [Example 39, 3-fluoro-N-(4-(piperidin-4-yloxy)pyrimidin-5-yl)-[2,4′-bipyridine]-6-carboxamide hydrochloride]"
7,1.9,"Cl.O=C(Nc1cncnc1OC1CCCNCC1)c1nc(-c2c(F)cccc2F)ccc1F (stereo not drawn) [Example 40, N-(4-(azepan-4-yloxy)pyrimidin-5-yl)-6-(2,6-difluorophenyl)-3-fluoropicolinamide hydrochloride]"
8,1.8,"COc1cccc(F)c1-c1nc(C(=O)Nc2cncnc2OC2CCCNCC2)ccc1F.Cl (stereo not drawn) [Example 41, N-(4-(azepan-4-yloxy)pyrimidin-5-yl)-5-fluoro-6-(2-fluoro-6-methoxyphenyl)picolinamide hydrochloride]"
9,2.4,"Cl.O=C(Nc1cncnc1OC1CCCNCC1)c1ccc(C(F)(F)F)c(-c2c(F)cccc2F)n1 (stereo not drawn) [Example 42, N-(4-(azepan-4-yloxy)pyrimidin-5-yl)-6-(2,6-difluorophenyl)-5-(trifluoromethyl)picolinamide hydrochloride]"
10,1.3,"Cl.O=C(Nc1cncnc1OCC1CCNCC1)c1ccc(C(F)(F)F)c(-c2c(F)cccc2F)n1 [Example 43, 6-(2,6-difluorophenyl)-N-(4-(piperidin-4-ylmethoxy)pyrimidin-5-yl)-5-(trifluoromethyl)picolinamide hydrochloride]"
11,1.8,"Cl.O=C(Nc1cncnc1OCC1CNC1)c1ccc(C(F)(F)F)c(-c2c(F)cccc2F)n1 [Example 44, N-(4-(azetidin-3-ylmethoxy)pyrimidin-5-yl)-6-(2,6-difluorophenyl)-5-(trifluoromethyl)picolinamide hydrochloride]"
12,2.7,"Cl.O=C(Nc1cncnc1OC1CCNCC1)c1ccc(C(F)(F)F)c(-c2c(F)cccc2F)n1 [Example 45, 6-(2,6-difluorophenyl)-N-(4-(piperidin-4-yloxy)pyrimidin-5-yl)-5-(trifluoromethyl)picolinamide hydrochloride]"
13,3.2,"Cl.N[C@H]1CC[C@H](Oc2ncncc2NC(=O)c2ccc(C(F)(F)F)c(-c3c(F)cccc3F)n2)CC1 [Example 46, N-(4-(((1r,4r)-4-aminocyclohexyl)oxy)pyrimidin-5-yl)-6-(2,6-difluorophenyl)-5-(trifluoromethyl)picolinamide hydrochloride]"
14,0.1,"O=C(Nc1cncnc1OCC1CCOCC1)c1ccc(C(F)(F)F)c(-c2c(F)cccc2F)n1 [Example 47, 6-(2,6-difluorophenyl)-N-(4-((tetrahydro-2H-pyran-4-yl)methoxy)pyrimidin-5-yl)-5-(trifluoromethyl)picolinamide]"
15,4.1,"Cl.Nc1cc(C(F)(F)F)c(-c2c(F)cccc2F)nc1C(=O)Nc1cncnc1OC1CCCNCC1 (stereo not drawn) [Example 48, 3-amino-N-(4-(azepan-4-yloxy)pyrimidin-5-yl)-6-(2,6-difluorophenyl)-5-(trifluoromethyl)picolinamide hydrochloride]"
16,3.2,"Cl.Nc1cc(C(F)(F)F)c(-c2c(F)cccc2F)nc1C(=O)Nc1cncnc1OCC1CCNCC1 [Example 49, 3-amino-6-(2,6-difluorophenyl)-N-(4-(piperidin-4-ylmethoxy)pyrimidin-5-yl)-5-(trifluoromethyl)picolinamide hydrochloride]"
17,2.9,"Cl.Nc1cc(C(F)(F)F)c(-c2c(F)cccc2F)nc1C(=O)Nc1cncnc1OCC1CNC1 [Example 50, 3-amino-N-(4-(azetidin-3-ylmethoxy)pyrimidin-5-yl)-6-(2,6-difluorophenyl)-5-(trifluoromethyl)picolinamide hydrochloride]"
18,4.0,"Cl.Nc1cc(C(F)(F)F)c(-c2c(F)cccc2F)nc1C(=O)Nc1cncnc1OC1CCNCC1 [Example 51, 3-amino-6-(2,6-difluorophenyl)-N-(4-(piperidin-4-yloxy)pyrimidin-5-yl)-5-(trifluoromethyl)picolinamide hydrochloride]"
19,4.3,"Cl.Nc1cc(C(F)(F)F)c(-c2c(F)cccc2F)nc1C(=O)Nc1cncnc1O[C@H]1CC[C@H](N)CC1 [Example 52, 3-amino-N-(4-(((1r,4r)-4-aminocyclohexyl)oxy)pyrimidin-5-yl)-6-(2,6-difluorophenyl)-5-(trifluoromethyl)picolinamide hydrochloride]"
20,2.4,"Cl.Nc1cc(C(F)(F)F)c(-c2ccccc2)nc1C(=O)Nc1cncnc1OC1CCNC1 (stereo not drawn) [Example 53, 3-amino-6-phenyl-N-(4-(pyrrolidin-3-yloxy)pyrimidin-5-yl)-5-(trifluoromethyl)picolinamide hydrochloride]"
21,2.0,"Cl.NCC(CCl)COc1ncncc1NC(=O)c1ccc(C(F)(F)F)c(-c2c(F)cccc2F)n1 (stereo not drawn) [Example 54, N-(4-(3-amino-2-(chloromethyl)propoxy)pyrimidin-5-yl)-6-(2,6-difluorophenyl)-5-(trifluoromethyl)picolinamide hydrochloride]"
22,4.4,"Cl.NCC(CCl)COc1ncncc1NC(=O)c1nc(-c2c(F)cccc2F)c(C(F)(F)F)cc1N (stereo not drawn) [Example 55, 3-amino-N-(4-(3-amino-2-(chloromethyl)propoxy)pyrimidin-5-yl)-6-(2,6-difluorophenyl)-5-(trifluoromethyl)picolinamide hydrochloride]"
23,2.5,"Cl.NCC(CO)COc1ncncc1NC(=O)c1ccc(F)c(-c2c(F)cccc2F)n1 (stereo not drawn) [Example 56, N-(4-(3-amino-2-(hydroxymethyl)propoxy)pyrimidin-5-yl)-6-(2,6-difluorophenyl)-5-fluoropicolinamide hydrochloride]"

row,Compound,CFTR Activity
1,"Cl.NCCCCOc1ncncc1NC(=O)c1nc(-c2c(F)cccc2F)c(F)cc1N [Example 36, 3-amino-N-(4-(4-aminobutoxy)pyrimidin-5-yl)-6-(2,6-difluorophenyl)-5-fluoropicolinamide]",2.4
